# Measured values: patent publication US7208526B2, “Styrylsulfonamides” (Hoffmann-La Roche Inc., priority 2005, dated 2007)
# Structures can show the parent of a compound that is named as a salt.
# Test system: HCT 116 cells (human colon carcinoma, ATCC-No. CCl-247)
# Experiment: Viability assay in HCT 116 cells (CellTiter-Glo Luminescent Cell Viability Assay)
# Assay type: cell-based
# Conditions: 10 concentrations 30 μM to 0.0015 μM, incubation 120 h (5 days), luminescence (ATP), triplicate
# From the text: Viability Assay in HCT 116 Cells
# This assay is a homogeneous method of determining the number of viable cells in culture based on quantitation of the ATP present, an indicator of metabolically active cells. The assay is designed for use with multiwell formats, making it ideal for automated high-throughput screening (HTS), cell proliferation and cytotoxicity assays. The homogeneous assay procedure involves adding a single reagent (containing luciferase, luciferan substrate, and buffer) directly to cells cultured in serum-supplemented medium. Cell washing, removal of medium and multiple pipetting steps are not required. The system detects as few as 15 cells/well in a 384-well format in 10 minutes after adding reagent and mixing.
# The homogeneous “add-mix-measure” format results in cell lysis and generation of a luminescent signal proportional to the amount of ATP present. The amount of ATP is directly proportional to the number of cells present in culture. The above-referenced assay generates a “glow-type” luminescent signal, produced by the luciferase reaction, which has a half-life generally greater than five hours, depending on cell type and medium used. The extended half-life eliminates the need to use reagent injectors and provides flexibility for continuous or batch mode processing of multiple plates. The unique homogeneous format avoids errors that may be introduced by other ATP measurement methods that require multiple steps.
# For the assay the cells were seeded in 384 well plates, 1000 cells per well, in the same medium. […] After 5 days the viability assay was done according to the instructions of the manufacturer. In brief: the cell-plate was equilibrated to room temperature for approximately 30 minutes and then reagent (containing luciferase, luciferan substrate, and buffer) was added. The contents were carefully mixed for 15 minutes to induce cell lysis. After 45 minutes the luminescent signal was measured in Victor 2, (scanning multiwell spectrophotometer, Wallac).
# In order to achieve a final concentration of 30 μM as highest concentration […] of 10 mM compound stock solution were added directly to 163 μl media. Then step e) of the dilution procedure described below, was followed.
# Analysis: • Add 30 μl of reagent containing luciferase, luciferan substrate, and buffer per well, • shake 15 minutes at room temperature • incubate further 45 minutes at room temperature without shaking
# Measurement: • Victor 2 scanning multiwell spectrophotometer (Wallac), Luminescence mode (0.5 sec/read, 477 nm) • Determine IC50 using a non-linear curve fit (XLfit® software [ID Business Solution Ltd., Guilford, Surrey, UK])
row,SMILES,IC50
1,"O=C(NS(=O)(=O)/C=C/c1ccccc1)c1ccc(Cl)cc1Cl [Example 1-2, (E)-2-Phenyl-ethenesulfonic acid 2,4-dichloro-benzoylamide]",3.1 µM
2,"Cc1ccc(/C=C/S(=O)(=O)NC(=O)c2ccc(Cl)cc2Cl)c(C)c1 [Example 1-4, (E)-2-(2,4-Dimethyl-phenyl)-ethenesulfonic acid 2,4-dichloro-benzoylamide]",0.5 to 15 µM
3,"COc1ccccc1/C=C/S(=O)(=O)NC(=O)c1ccc(Cl)cc1Cl [Example 1-5, (E)-2-(2-Methoxy-phenyl)-ethenesulfonic acid 2,4-dichloro-benzoylamide]",0.5 to 15 µM
4,"O=C(NS(=O)(=O)/C=C/c1ccc(F)cc1F)c1ccc(Cl)cc1Cl [Example 1-8, (E)-2-(2,4-Difluoro-phenyl)-ethenesulfonic acid 2,4-dichloro-benzoylamide]",0.5 to 15 µM
5,"O=C(NS(=O)(=O)/C=C/c1ccc(F)cc1F)c1ccc(F)cc1Cl [Example 1-17, (E)-2-(2,4-Difluoro-phenyl)-ethenesulfonic acid 2-chloro-4-fluoro-benzoylamide; sodium salt]",0.5 to 15 µM
6,"Cc1ccc(/C=C/S(=O)(=O)NC(=O)c2ccc(C(F)(F)F)cc2C(F)(F)F)c(C)c1 [Example 1-26, (E)-2-(2,4-Dimethyl-phenyl)-ethenesulfonic acid 2,4-bis-trifluoromethyl-benzoylamide; sodium salt]",0.5 to 15 µM
7,"COc1ccccc1/C=C/S(=O)(=O)NC(=O)c1ccc(C(F)(F)F)cc1C(F)(F)F [Example 1-28, (E)-2-(2-Methoxy-phenyl)-ethenesulfonic acid 2,4-bis-trifluoromethyl-benzoylamide; sodium salt]",0.5 to 15 µM
8,"O=C(NS(=O)(=O)/C=C/c1ccccc1O)c1ccc(Cl)cc1Cl [Example 1-33, (E)-2-(2-Hydroxy-phenyl)-ethenesulfonic acid 2,4-dichloro-benzoylamide]",0.5 to 15 µM
9,"O=C(NS(=O)(=O)/C=C/c1cccc(O)c1)c1ccc(Cl)cc1Cl [Example 1-35, (E)-2-(3-Hydroxy-phenyl)-ethenesulfonic acid 2,4-dichloro-benzoylamide]",0.5 to 15 µM
10,"O=C(NS(=O)(=O)/C=C/c1ccc(OC(F)(F)F)cc1)c1ccc(F)cc1Cl [Example 1-39, (E)-2-(4-Trifluoromethoxyphenyl)-ethenesulfonic acid 2-chloro-4-fluoro-benzoylamide; sodium salt]",0.5 to 15 µM
11,"O=C(NS(=O)(=O)/C=C/c1ccc(C(F)(F)F)cc1)c1ccc(F)cc1C(F)(F)F [Example 1-42, (E)-2-(4-Trifluoromethyl-phenyl)-ethenesulfonic acid 4-fluoro-2-trifluoromethyl-benzoylamide; sodium salt]",0.5 to 15 µM
12,"C/C(=C\c1ccccc1)S(=O)(=O)NC(=O)c1ccc(Cl)cc1Cl [Example 2-1, (E)-1-Phenyl-propene-2-sulfonic acid 2,4-dichloro-benzoylamide]",0.5 to 15 µM
13,"COc1cccc(/C=C/S(=O)(=O)NC(=O)c2ccc(Cl)cc2OC)c1 [Example 4-5, (E)-2-(3-Methoxy-phenyl)-ethenesulfonic acid 4-chloro-2-methoxy-benzoylamide; sodium salt]",0.5 to 15 µM
14,"O=C(NS(=O)(=O)/C=C/c1ccc(C(F)(F)F)cc1)c1ccc(F)cc1Br [Example 4-17, (E)-2-(4-Trifluoromethyl-phenyl)-ethenesulfonic acid 2-bromo-4-fluoro-benzoylamide; sodium salt]",0.5 to 15 µM

# Next, values leading:
row,IC50,SMILES
1,8.5 µM,"O=C(NS(=O)(=O)/C=C/c1ccc(Cl)cc1)c1ccc(Cl)cc1Cl [Example 1-1, (E)-2-(4-Chloro-phenyl)-ethenesulfonic acid 2,4-dichloro-benzoylamide]"
2,0.5 to 15 µM,"O=C(NS(=O)(=O)/C=C/c1ccc(C(F)(F)F)cc1)c1ccc(Cl)cc1Cl [Example 1-3, (E)-2-(4-Trifluoromethyl-phenyl)-ethenesulfonic acid 2,4-dichloro-benzoylamide]"
3,0.5 to 15 µM,"O=C(NS(=O)(=O)/C=C/c1ccccc1Cl)c1ccc(Cl)cc1Cl [Example 1-7, (E)-2-(2-Chlorophenyl)-ethenesulfonic acid 2,4-dichloro-benzoylamide]"
4,0.5 to 15 µM,"O=C(NS(=O)(=O)/C=C/c1ccc(OC(F)(F)F)cc1)c1ccc(Cl)cc1Cl [Example 1-9, (E)-2-(4-Trifluoromethoxyphenyl)-ethenesulfonic acid 2,4-dichloro-benzoylamide]"
5,0.5 to 15 µM,"CN(C)c1ccccc1/C=C/S(=O)(=O)NC(=O)c1ccc(Cl)cc1Cl [Example 1-13, (E)-2-(2-Dimethylamino-phenyl)-ethenesulfonic acid 2,4-dichloro-benzoylamide]"
6,0.5 to 15 µM,"COc1cccc(/C=C/S(=O)(=O)NC(=O)c2ccc(F)cc2Cl)c1 [Example 1-14, (E)-2-(3-Methoxy-phenyl)-ethenesulfonic acid 2-chloro-4-fluoro-benzoylamide; sodium salt]"
7,0.5 to 15 µM,"Cc1ccc(/C=C/S(=O)(=O)NC(=O)c2ccc(F)cc2C(F)(F)F)c(C)c1 [Example 1-20, (E)-2-(2,4-Dimethyl-phenyl)-ethenesulfonic acid 4-fluoro-2-trifluoromethyl-benzoylamide; sodium salt]"
8,0.5 to 15 µM,"O=C(NS(=O)(=O)/C=C/c1ccccc1Cl)c1ccc(F)cc1C(F)(F)F [Example 1-23, (E)-2-(2-Chlorophenyl)-ethenesulfonic acid 4-fluoro-2-trifluoromethyl-benzoylamide; sodium salt]"
9,0.5 to 15 µM,"O=C(NS(=O)(=O)/C=C/c1ccccc1Cl)c1ccc(C(F)(F)F)cc1C(F)(F)F [Example 1-30, (E)-2-(2-Chlorophenyl)-ethenesulfonic acid 2,4-bis-trifluoromethyl-benzoylamide; sodium salt]"
10,0.5 to 15 µM,"O=C(NS(=O)(=O)/C=C/c1c(F)cc(F)cc1F)c1ccc(Cl)cc1Cl [Example 1-36, (E)-2-(2,4,6-Trifluoro-phenyl)-ethenesulfonic acid 2,4-dichloro-benzoylamide; sodium salt]"
11,0.5 to 15 µM,"O=C(NS(=O)(=O)C=Cc1ccccc1)c1ccc(Cl)cc1F [Example 1-43, 2-Phenyl-ethenesulfonic acid 4-chloro-2-fluoro-benzoylamide]"
12,0.5 to 15 µM,"O=C(NS(=O)(=O)/C=C/c1ccccc1)c1ccc(F)cc1C(F)(F)F [Example 1-45, (E)-2-Phenyl-ethenesulfonic acid 4-fluoro-2-trifluoromethyl-benzoylamide; sodium salt]"
13,9.2 µM,"C/C(=C\S(=O)(=O)NC(=O)c1ccc(Cl)cc1Cl)c1ccccc1 [Example 3-1, (E)-2-Phenyl-propene-1-sulfonic acid 2,4-dichloro-benzoylamide]"
14,0.5 to 15 µM,"Cc1cc(Cl)ccc1C(=O)NS(=O)(=O)/C=C/c1ccccc1Cl [Example 4-2, (E)-2-(2-Chlorophenyl)-ethenesulfonic acid 4-chloro-2-methyl-benzoylamide; sodium salt]"
15,0.5 to 15 µM,"COc1ccccc1/C=C/S(=O)(=O)NC(=O)c1ccc(Cl)cc1C [Example 4-4, (E)-2-(2-Methoxy-phenyl)-ethenesulfonic acid 4-chloro-2-methyl-benzoylamide; sodium salt]"
16,0.5 to 15 µM,"COc1ccccc1/C=C/S(=O)(=O)NC(=O)c1ccc(Br)cc1C [Example 4-8, (E)-2-(2-Methoxy-phenyl)-ethenesulfonic acid 4-bromo-2-methyl-benzoylamide; sodium salt]"
17,0.5 to 15 µM,"Cc1cc(Br)ccc1C(=O)NS(=O)(=O)C=Cc1ccccc1Cl [Example 4-10, 2-(2-Chlorophenyl)-ethenesulfonic acid 4-bromo-2-methyl-benzoylamide; sodium salt]"
18,0.5 to 15 µM,"COc1ccccc1/C=C/S(=O)(=O)NC(=O)c1ccc(C)cc1Br [Example 4-13, (E)-2-(2-Methoxy-phenyl)-ethenesulfonic acid 2-bromo-4-methyl-benzoylamide; sodium salt]"
19,0.5 to 15 µM,"Cc1ccc(C(=O)NS(=O)(=O)/C=C/c2ccc(Cl)c(Cl)c2)c(Br)c1 [Example 4-16, (E)-2-(3,4-Dichloro-phenyl)-ethenesulfonic acid 2-bromo-4-methyl-benzoylamide; sodium salt]"
20,0.5 to 15 µM,"COc1cccc(/C=C/S(=O)(=O)NC(=O)c2ccc(F)cc2Br)c1 [Example 4-18, (E)-2-(3-Methoxy-phenyl)-ethenesulfonic acid 2-bromo-4-fluoro-benzoylamide; sodium salt]"
21,0.5 to 15 µM,"O=C(NS(=O)(=O)/C=C/c1ccccc1Cl)c1ccc(F)cc1Br [Example 4-21, (E)-2-(2-Chlorophenyl)-ethenesulfonic acid 2-bromo-4-fluoro-benzoylamide; sodium salt]"
